Values of other authors, collected in patent publication US20190255075A1, “TREATMENT OF PROSTATE CANCER” (priority 2018, published 2019).

What was measured:
prostate cancer cells = conditions: sirolimus used alone
[1] = system: hormone refractory prostate cancer; conditions: single agent

SMILES: CO[C@H]1C[C@@H]2CC[C@@H](C)[C@@](O)(O2)C(=O)C(=O)N2CCCC[C@H]2C(=O)O[C@H]([C@H](C)C[C@@H]2CC[C@@H](O)[C@H](OC)C2)CC(=O)[C@H](C)/C=C(\C)[C@@H](O)[C@@H](OC)C(=O)[C@H](C)C[C@H](C)/C=C/C=C/C=C/1C [Sirolimus, sirolimus]
- effect on prostate cancer cells (prostate cancer cells): limited effects
- patients with positive outcomes ([1]; of twelve evaluable patients with hormone refractory prostate cancer): two
- decrease in PSA ([1]; one of the two responding patients, with partial radiographic response): 50%
